The species entered for test [1] is Rattus norvegicus. The test can be described thus: Evaluated for inhibition of norepinephrine, biogenic amine reuptake in synaptosomal rat brain preparations. The format is functional.
The species entered for test [2] is Rattus norvegicus. The test can be described thus: Evaluated for inhibition of dopamine, biogenic amine reuptake in synaptosomal rat brain preparations. The format is functional.
Test [3] addresses T1, Adrenergic receptor alpha-1 (Rattus norvegicus, UniProt P15823+P23944+P43140).
T1 sequence (P15823 whole entry): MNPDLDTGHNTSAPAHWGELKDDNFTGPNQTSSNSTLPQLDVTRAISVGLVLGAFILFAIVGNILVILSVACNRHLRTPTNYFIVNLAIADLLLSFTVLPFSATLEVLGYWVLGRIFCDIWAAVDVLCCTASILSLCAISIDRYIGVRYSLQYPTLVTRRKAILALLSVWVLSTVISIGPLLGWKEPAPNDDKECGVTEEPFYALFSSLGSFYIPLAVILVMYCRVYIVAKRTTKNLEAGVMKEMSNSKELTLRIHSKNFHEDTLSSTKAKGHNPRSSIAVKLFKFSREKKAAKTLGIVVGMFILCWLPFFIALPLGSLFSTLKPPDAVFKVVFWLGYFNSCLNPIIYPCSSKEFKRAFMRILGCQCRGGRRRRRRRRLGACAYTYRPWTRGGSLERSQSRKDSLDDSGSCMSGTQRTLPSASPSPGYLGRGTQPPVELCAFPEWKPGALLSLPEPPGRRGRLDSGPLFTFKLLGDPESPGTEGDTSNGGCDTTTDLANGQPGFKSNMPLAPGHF
T1 sequence (P23944 whole entry): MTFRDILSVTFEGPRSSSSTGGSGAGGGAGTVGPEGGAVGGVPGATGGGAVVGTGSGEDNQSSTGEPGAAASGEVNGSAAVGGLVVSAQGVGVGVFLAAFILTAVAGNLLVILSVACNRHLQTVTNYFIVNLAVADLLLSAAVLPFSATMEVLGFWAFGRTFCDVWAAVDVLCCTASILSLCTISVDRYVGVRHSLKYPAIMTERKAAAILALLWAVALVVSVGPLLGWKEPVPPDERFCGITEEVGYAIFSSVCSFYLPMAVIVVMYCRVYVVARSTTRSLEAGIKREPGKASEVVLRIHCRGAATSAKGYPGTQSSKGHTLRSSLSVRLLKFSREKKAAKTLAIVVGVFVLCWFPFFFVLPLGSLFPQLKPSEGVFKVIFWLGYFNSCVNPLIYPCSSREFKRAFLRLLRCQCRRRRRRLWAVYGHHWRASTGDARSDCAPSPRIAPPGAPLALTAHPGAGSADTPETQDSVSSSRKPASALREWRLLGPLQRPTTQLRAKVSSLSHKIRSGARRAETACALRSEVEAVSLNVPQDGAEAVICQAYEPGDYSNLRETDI
T1 sequence (P43140 whole entry): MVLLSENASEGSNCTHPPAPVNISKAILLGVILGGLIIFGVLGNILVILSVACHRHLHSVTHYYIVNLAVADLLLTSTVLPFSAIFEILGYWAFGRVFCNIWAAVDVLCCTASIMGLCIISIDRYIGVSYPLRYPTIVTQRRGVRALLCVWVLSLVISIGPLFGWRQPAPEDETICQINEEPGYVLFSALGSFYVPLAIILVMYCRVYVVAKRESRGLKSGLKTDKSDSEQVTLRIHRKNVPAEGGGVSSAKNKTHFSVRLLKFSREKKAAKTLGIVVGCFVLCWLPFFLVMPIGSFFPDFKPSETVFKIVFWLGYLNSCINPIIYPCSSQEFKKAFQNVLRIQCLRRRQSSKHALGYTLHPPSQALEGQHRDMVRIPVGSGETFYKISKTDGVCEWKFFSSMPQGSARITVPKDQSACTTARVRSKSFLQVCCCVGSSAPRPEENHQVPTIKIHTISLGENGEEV
In words: Evaluated for affinity at Alpha-1 adrenergic receptor of rat brain using [3H]prazosin as radioligand in radioligand binding assay.

In test [4] the target is T2, Adrenergic receptor alpha-2 (Rattus norvegicus, UniProt P22086+P19328+P22909).
T2 sequence (P22086 whole entry): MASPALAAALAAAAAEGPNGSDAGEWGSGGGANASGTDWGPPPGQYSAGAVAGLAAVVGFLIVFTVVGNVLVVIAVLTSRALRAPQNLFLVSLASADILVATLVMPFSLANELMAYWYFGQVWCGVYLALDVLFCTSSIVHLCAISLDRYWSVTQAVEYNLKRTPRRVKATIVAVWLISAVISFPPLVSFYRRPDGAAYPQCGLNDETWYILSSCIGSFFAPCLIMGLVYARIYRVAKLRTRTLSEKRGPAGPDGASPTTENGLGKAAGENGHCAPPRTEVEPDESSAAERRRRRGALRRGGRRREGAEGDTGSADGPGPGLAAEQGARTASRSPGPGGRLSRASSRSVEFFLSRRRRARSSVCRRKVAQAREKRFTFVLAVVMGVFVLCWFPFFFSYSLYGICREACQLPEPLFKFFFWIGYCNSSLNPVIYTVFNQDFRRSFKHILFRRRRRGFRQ
T2 sequence (P19328 whole entry): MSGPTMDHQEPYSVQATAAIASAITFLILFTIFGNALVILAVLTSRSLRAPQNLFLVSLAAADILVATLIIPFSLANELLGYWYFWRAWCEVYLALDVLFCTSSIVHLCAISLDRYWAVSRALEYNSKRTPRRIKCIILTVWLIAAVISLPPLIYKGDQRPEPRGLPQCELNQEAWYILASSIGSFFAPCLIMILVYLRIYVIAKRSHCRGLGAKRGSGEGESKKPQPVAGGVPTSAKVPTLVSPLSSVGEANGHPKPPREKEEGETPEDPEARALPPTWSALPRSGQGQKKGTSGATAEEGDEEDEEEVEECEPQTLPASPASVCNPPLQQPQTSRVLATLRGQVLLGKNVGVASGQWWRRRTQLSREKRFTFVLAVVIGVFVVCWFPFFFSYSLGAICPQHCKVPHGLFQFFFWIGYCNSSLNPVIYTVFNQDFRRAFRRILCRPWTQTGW
T2 sequence (P22909 whole entry): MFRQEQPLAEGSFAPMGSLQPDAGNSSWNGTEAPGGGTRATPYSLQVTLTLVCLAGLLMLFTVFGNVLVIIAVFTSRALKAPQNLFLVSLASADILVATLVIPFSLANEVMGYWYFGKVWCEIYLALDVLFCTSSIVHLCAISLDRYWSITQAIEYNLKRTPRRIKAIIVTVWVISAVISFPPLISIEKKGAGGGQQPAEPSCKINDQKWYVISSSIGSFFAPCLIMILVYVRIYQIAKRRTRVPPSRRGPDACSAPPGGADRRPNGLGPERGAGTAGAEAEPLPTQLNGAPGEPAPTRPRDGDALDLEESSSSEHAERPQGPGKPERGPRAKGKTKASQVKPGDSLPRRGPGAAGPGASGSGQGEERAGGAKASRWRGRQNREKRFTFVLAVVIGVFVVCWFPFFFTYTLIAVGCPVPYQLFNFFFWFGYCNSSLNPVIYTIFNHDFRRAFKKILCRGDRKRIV
In words: Evaluated for affinity at Alpha-2 adrenergic receptor of rat brain using [3H]rauwolscine as radioligand in radioligand binding assay.

Test [5] is filed under the species Rattus norvegicus. In words: […] reversal of passive avoidance deficit in olfactory bulbectomized rats. In kind it is functional.
Test [6] is filed under the species Rattus norvegicus. The test can be described thus: […] p-chloroamphetamine (PCA) induced hyperactivity in rats. The format is functional.
For test [7], the species on record is Rattus norvegicus. In words: Evaluated for inhibition of 5-Hydroxytryptamine, biogenic amine reuptake in synaptosomal rat brain preparations. In kind it is functional.
Test [8] concerns the target T2, Adrenergic receptor alpha-2. The test can be described thus: Evaluated for affinity at Alpha-2 adrenergic receptor of rat cortex using [3H]rauwolscine as radioligand in radioligand binding assay.
A further test addresses D(1A) dopamine receptor (Rattus norvegicus, UniProt P18901). The test can be described thus: Compound was evaluated for its binding affinity to Dopamine receptor D1 in rat striatum using [3H]- SCH-23390 radioligand assay. In kind it is tissue-based.
The target of test [9] is Serotonin 2 (5-HT2) receptor (Rattus norvegicus, UniProt P30994+P08909+P14842). In words: Compound was evaluated for its binding affinity to 5-hydroxytryptamine 2 receptor in rat cortex using [3H]ketanserin radioligand assay.
For test [10], the target named is Beta-1 adrenergic receptor (Rattus norvegicus, UniProt P18090). In words: Compound was evaluated for its binding affinity to beta-1 receptor in rat brain using [3H]- DHA radioligand assay. The format is tissue-based.
Test [11] has as its target Serotonin 1 (5-HT1) receptor (Rattus norvegicus, UniProt P28564+P30940+P19327+P28565). In words: Compound was evaluated for its binding affinity to 5-hydroxytryptamine 1 receptor in rat brain using [3H]HT radioligand assay. In kind it is tissue-based.
Another test addresses D(2) dopamine receptor (Rattus norvegicus, UniProt P61169). The test can be described thus: Compound was evaluated for its binding affinity to Dopamine receptor D2 in rat brain using [3H]- spiroperidol radioligand assay. In kind it is tissue-based.

This passage reports IC50, Ki and ED50 results from ChEMBL document CHEMBL1128895, “Synthesis and pharmacological characterization of A-80426: A putative novel antidepressant combining -2 antagonism with 5-HT uptake inhibition” (Bioorg Med Chem Lett, 1995).

Structures are written as SMILES. Where only a bound is given, the exact number is not on record here.

Chain of D(2) dopamine receptor (P61169 whole entry): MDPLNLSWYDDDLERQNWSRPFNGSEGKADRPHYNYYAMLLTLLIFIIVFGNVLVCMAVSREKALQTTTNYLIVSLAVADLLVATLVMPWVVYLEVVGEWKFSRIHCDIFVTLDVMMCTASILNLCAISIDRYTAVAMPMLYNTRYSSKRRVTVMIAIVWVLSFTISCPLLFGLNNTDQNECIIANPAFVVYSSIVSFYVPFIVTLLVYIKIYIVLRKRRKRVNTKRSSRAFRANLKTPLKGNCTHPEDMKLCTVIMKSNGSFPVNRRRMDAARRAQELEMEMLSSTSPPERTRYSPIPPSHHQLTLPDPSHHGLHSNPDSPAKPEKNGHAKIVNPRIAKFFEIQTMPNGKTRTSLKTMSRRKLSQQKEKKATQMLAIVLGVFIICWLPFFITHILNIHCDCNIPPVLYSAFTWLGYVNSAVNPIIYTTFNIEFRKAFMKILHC
Chain of D(1A) dopamine receptor (P18901 whole entry): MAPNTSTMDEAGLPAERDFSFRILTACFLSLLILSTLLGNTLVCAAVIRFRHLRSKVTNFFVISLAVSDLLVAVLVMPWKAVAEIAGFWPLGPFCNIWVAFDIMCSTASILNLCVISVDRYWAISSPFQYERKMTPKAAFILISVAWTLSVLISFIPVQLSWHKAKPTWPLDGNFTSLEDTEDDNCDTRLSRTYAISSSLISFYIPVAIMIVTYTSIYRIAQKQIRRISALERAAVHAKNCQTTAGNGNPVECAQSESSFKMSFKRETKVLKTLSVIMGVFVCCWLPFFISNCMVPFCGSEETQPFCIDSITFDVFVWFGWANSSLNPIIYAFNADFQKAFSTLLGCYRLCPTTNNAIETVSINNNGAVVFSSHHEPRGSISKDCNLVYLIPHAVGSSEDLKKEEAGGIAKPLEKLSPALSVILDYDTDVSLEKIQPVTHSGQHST
Chain of Beta-1 adrenergic receptor (P18090 whole entry): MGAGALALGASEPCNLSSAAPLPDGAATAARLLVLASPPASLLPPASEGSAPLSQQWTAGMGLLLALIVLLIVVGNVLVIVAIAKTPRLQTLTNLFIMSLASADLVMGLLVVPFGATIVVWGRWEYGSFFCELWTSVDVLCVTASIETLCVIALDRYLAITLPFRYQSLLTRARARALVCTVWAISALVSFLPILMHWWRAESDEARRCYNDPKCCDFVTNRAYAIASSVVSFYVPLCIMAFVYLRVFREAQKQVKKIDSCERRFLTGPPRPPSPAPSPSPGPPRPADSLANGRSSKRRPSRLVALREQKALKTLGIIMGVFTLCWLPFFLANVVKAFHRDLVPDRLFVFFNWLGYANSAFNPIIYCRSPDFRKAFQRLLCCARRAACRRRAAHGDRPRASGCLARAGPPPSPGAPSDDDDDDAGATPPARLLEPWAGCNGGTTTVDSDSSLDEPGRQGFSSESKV

For the compound `COc1cccc2c1CCC[C@@H]2CN(C)CCc1ccc2ccoc2c1`, the IC50 in the test filed under Rattus norvegicus [1] was 476 nM; in the test filed under Rattus norvegicus [2] it was 4750 nM. Moreover, the Ki in test [3] is on record as 241 nM; in test [4], 110 nM.
`CNCCC(Oc1ccc(C(F)(F)F)cc1)c1ccccc1` (stereo unspecified) [FLUOXETINE]: the IC50 in the test listed under Rattus norvegicus [1] was 3280 nM; in the test filed under Rattus norvegicus [2], 16200 nM; in the test listed under Rattus norvegicus [7], 308 nM. The ED50 turned out to be 12.1 mg/kg in the test filed under Rattus norvegicus [5] and 11.7 mg/kg in the test filed under Rattus norvegicus [6].
On to `COC(=O)[C@H]1[C@H]2C[C@H]3c4[nH]c5ccccc5c4CCN3C[C@H]2CC[C@@H]1O` [RAUWOLSCINE], for which the IC50 in the test filed under Rattus norvegicus [1] and in the test filed under Rattus norvegicus [2] was more than 10000 nM in each case.
As to `COc1cccc2c1CCC[C@H]2CN(C)CCc1ccc2ccoc2c1`, the Ki in [8] was determined as 2.01 nM; at D(1A) dopamine receptor it was 744 nM; in test [3], 110 nM; in test [9] it was 144 nM; in test [10], 836 nM; in test [11], 2970 nM. The same compound had a Ki on D(2) dopamine receptor of 52 nM. The figures for the IC50 in the test filed under Rattus norvegicus [1] and in the test listed under Rattus norvegicus [2] were 865 nM and 2940 nM, respectively. The ED50 in the test listed under Rattus norvegicus [5] was determined as 7.1 mg/kg; in the test listed under Rattus norvegicus [6], 13.3 mg/kg.
Take `Fc1ccc([C@@H]2CCNC[C@H]2COc2ccc3c(c2)OCO3)cc1` [PAROXETINE]: the results for the IC50 in the test listed under Rattus norvegicus [1] and in the test listed under Rattus norvegicus [2] were 160 nM and 7620 nM, respectively. The inhibition constant Ki in test [3] was found to be 5320 nM; in test [4], 6310 nM.
